Experimental findings from US6004983A, “N-substituted azaheterocyclic compounds” (Novo Nordisk A/S, priority 1996, dated 1999) are described below.

The test system of this test is histamine induced oedema. Briefly: Histamine induced paw oedema (rat histamine paw oedema test). As to conditions: at 1 mg/kg, intraperitoneally 15 minutes before the anaesthetics, histamine 50 microliter, 3 mg/ml in right hind paw, swelling 20 minutes after histamine. Format: in vivo, rat (male Sprague-Dawley). On the procedure: Compounds of formula I may be used to treat all painful, hyperalgesic and/or inflammatory conditions in which C-fibres play a pathophysiological role by eliciting neurogenic pain or inflammation, i. e.:
I. Histamine induced paw oedema
The rat histamine paw oedema test was performed essentially as described by Amann et al. (Europ. J. Pharmacol. 279, 227-231, 1995). In brief 250-300 g male Sprague-Dawley rats were anaesthetized with pentobarbital sodium, and placed on a 32 degree(Celsius) heated table. Ten minutes later histamine (50 micoliter, 3 mg/ml) was injected in the right hind paw and 20 minutes hereafter the paw swelling was determined by water plethysmography (Ugo Basile). Test compounds were administered intraperitoneally at 15 minutes before the anaesthetics.

For the molecule `Cl.O=C(O)C1CCN(CC=C2c3ccccc3CSc3ccccc32)CC1` [Example 2, 1-(2-(6,11-Dihydrodibenzo[b,e]thiepin-11-ylidene)-1-ethyl)-4-piperidinecarboxylic acid hydrochloride], the “% oedema inhibition (inhibition of histamine induced oedema)” value came out at 51%. In the case of `Cl.O=C(O)[C@H]1CCCCN1CC=C1c2ccccc2CCc2ccccc21` [Example 12, (R)-1-(2-(10,11-dihydro-5H-dibenzo[a,d]cyclohepten-5-ylidene)-1-ethyl)-2-piperidinecarboxylic acid hydrochloride] it was 49%.
